Results: patent US20050100510A1, “Methods for using gadolinium as a contrast media” (priority 2003, published 2005)
“Also recorded” adds a separate entry of the source. Read-outs that look alike come from different tables or passages of the source.

Key:
[1] = intravenous administration; cited from earlier work
[2] = Second set of test cases: fluoroscopically guided spinal injections with gadolinium; type: in vivo, human
Protocol: During the second of set of tests, gadolinium was injected into a variety of target portions of the spinal area to create a contrast between the target portion and surrounding tissue. As described below, these contrasts were adequately sensed using fluoroscopy to create visual representations of the contrast between the target portion and the surrounding tissue. The second set of tests utilized a preferred embodiment of the method of using gadolinium as a contrast substance, where a visualization was created to use as a guide for the accurate injection of a diagnostic or therapeutic substance into the target portion of the spinal area. In this respect, visualization of the contrast helps to localize placement of a needle for an injection of a substance avoiding the harm that the injection might cause to surrounding tissue.
The second set of tests comprised chart review, performance of spinal injections with gadolinium under fluoroscopic guidance, and post procedure follow-up by phone at two and twelve weeks to assess any adverse reactions to the gadolinium. […] The tests utilized a contrast substance that was 469.01 mg/ml gadolinium (Magnevist—from Berlex Laboratories, Wayne, N.J.). […]

[3] = Third set of cases: spinal interventional procedures with fluoroscopic guidance, adverse reactions; type: in vivo, human
Description: In a third set of cases, two-hundred-and-thirty patients underwent spinal interventional procedures with fluoroscopic guidance. Two-hundred-and-eleven patients were subsequently evaluated for any adverse reaction in the period immediately after the procedure and up to several weeks after the procedure. Seventy-four of the patients were male and one-hundred-and-thirty-seven were female. The age range of the patient population varied from sixteen years old to eighty-one year old, and the average age of the patient population was 48.7 years old. The only prophylactic medications that were administered before the procedure were antibiotics for patients undergoing discography, patients with significant cardiac disease, or patients with surgical implants. The number and type of procedures along with the number of adverse reactions for each procedure type are summarized in below in Table 1: […]

[4] = First set of test cases: gadolinium lumbar discography with fluoroscopy and CT; type: in vivo, human; settings: for visibility of contrast on computer axial tomography: approximately one-hundred-and-sixty minutes after injection, case 1-1
Protocol: A first set of test cases was conducted wherein it was identified that gadolinium would adequately opacify, thereby allowing adequate fluoroscopic imaging for of soft tissue portions of the spinal area and, for example, for lumbar discography procedures. […] During the first set of test cases, a solution of 469.01 mg/ml gadolinium (Magnevist—Berlex Laboratories, Wayne, N.J.) with 25 mg/ml Cefazolin (Apothecon, Princeton, N.J.) for antibacterial prophylaxis was injected into each disc using a standard three milliliter syringe. The following is a brief synopsis of six tests from the first set of tests:
The volume of contrast injected at pain onset, the end point (nucleography), the pain intensity measured with the numerical analog scale, and the concordant and/or discordant pain response were recorded for each spinal disc to be injected with gadolinium. Each spinal disc then was visualized with c-arm fluoroscopy to create a visualization of the nucleogram and provocation of the spinal discs.

[5] = cited from earlier work
[6] = repeated exposure in sensitive individuals

**Q.** With `CNC[C@H](O)[C@@H](O)[C@H](O)[C@H](O)CO.CNC[C@H](O)[C@@H](O)[C@H](O)[C@H](O)CO.O=C([O-])CN(CCN(CC(=O)[O-])CC(=O)O)CCN(CC(=O)[O-])CC(=O)O.[Gd+3]` [gadolinium, gadopentate dimeglumine] as the compound, how does the adverse reaction rate [1] read?
**A.** The adverse reaction rate was 0.06%.

**Q.** What about the “side effects, complications or adverse reactions” value ([2]; 469.01 mg/ml gadolinium (Magnevist), follow-up at two and twelve weeks) of the same compound?
**A.** Its value is “no side effects or complications; also recorded: None of the individuals in the case series of the present invention had any adverse reactions”.

**Q.** What about the visibility under fluoroscopy ([2]; soft tissue of the spinal area) of the same compound?
**A.** Its visibility under fluoroscopy is “visible under fluoroscopy”.

**Q.** What about the “Number of Adverse Reactions” value ([3]; Caudal epidural, 16 procedures) of the same compound?
**A.** Its value is 0.

**Q.** And the “Number of Adverse Reactions” value ([3]; Cervical SNRB, 14 procedures)?
**A.** Its value is 1.

**Q.** And the “Number of Adverse Reactions” value ([3]; Cervical interlaminar, 6 procedures)?
**A.** The value was 1.

**Q.** And the “Number of Adverse Reactions” value ([3]; Lumbar SNRB, 55 procedures)?
**A.** Its value is 4.

**Q.** And the “Number of Adverse Reactions” value ([3]; Lumbar discography, 11 procedures)?
**A.** The value was 0.

**Q.** What about the “Number of Adverse Reactions” value ([3]; Lumbar epidurolysis, 4 procedures) of the same compound?
**A.** The value was 0.

**Q.** What about the “Number of Adverse Reactions” value ([3]; Lumbar interlaminar, 37 procedures) of the same compound?
**A.** The value was 1.

**Q.** What about the “Number of Adverse Reactions” value ([3]; Lumbar intraarticular facet, 3 procedures) of the same compound?
**A.** Its value is 0.

**Q.** And the “Number of Adverse Reactions” value ([3]; Lumbar sympathetic, 4 procedures)?
**A.** Its value is 0.

**Q.** What about the “Number of Adverse Reactions” value ([3]; Other miscellaneous, 13 procedures) of the same compound?
**A.** The value was 1.

**Q.** What about the “Number of Adverse Reactions” value ([3]; Sacroiliac joint, 59 procedures) of the same compound?
**A.** Its value is 2.

**Q.** What about the “quality of visualizations from gadolinium-induced contrasts” value ([3]; all procedures, fluoroscopic devices) of the same compound?
**A.** Its value is “adequate visualizations”.

**Q.** What about the serious adverse reactions ([3]; of the five allergic-type reactions, likely due to contributing factors) of the same compound?
**A.** The serious adverse reactions was “one”.

**Q.** What about the “adverse reactions attributable to allergic-type reactions” value ([3]; out of the ten adverse reactions) of the same compound?
**A.** Its value is “five”.

**Q.** And the “visibility in disc material on fluoroscopic image” value ([4]; after injection into spinal discs)?
**A.** The value was “fluoroscopically visible; also recorded: clearly visible”.

**Q.** What about the “visibility of contrast on computer axial tomography” value ([4]; L3-L4 spinal disc) of the same compound?
**A.** The value was “visible”.

**Q.** What about the “visibility of contrast on computer axial tomography” value ([4]; L4-L5 disrupted spinal disc) of the same compound?
**A.** Its value is “less intensive, but still visible”.

**Q.** And the “complications during or after the procedure” value ([4]; intradiscal, 469.01 mg/ml gadolinium with 25 mg/ml Cefazolin, single patient cases)?
**A.** The value was “No complications”.

**Q.** And the “visibility on CT scan” value ([4]; more than one-hundred-and-twenty minutes after injection, discs with and without annular disruption)?
**A.** Its value is “still visible”.

**Q.** What about the “visibility on computer axial tomography” value ([4]; thirty minutes after completion of the procedure, case 1-2) of the same compound?
**A.** Its value is “showed gadolinium in each disc”.

**Q.** What does the source list for `CC(=O)N(CC(O)CO)c1c(I)c(C(=O)NCC(O)CO)c(I)c(C(=O)NCC(O)CO)c1I` (stereo not drawn) [iohexol]?
**A.** anaphylaxis occurrence ([5]; first dose administrations): one percent and two percent; anaphylaxis occurrence [5, 6]: seventeen percent and thirty-five percent

**Q.** For `C[C@H](O)C(=O)Nc1c(I)c(C(=O)NC(CO)CO)c(I)c(C(=O)NC(CO)CO)c1I` [iopamidol], which anaphylaxis occurrence ([5]; first dose administrations) is on record?
**A.** Its anaphylaxis occurrence is “one percent and two percent”.

**Q.** And the anaphylaxis occurrence [5, 6]?
**A.** The anaphylaxis occurrence was “seventeen percent and thirty-five percent”.
